Data reported in patent US20250368872A1, “PROTEIN CROSSLINKING AGENT” (CANON KABUSHIKI KAISHA, priority 2023, published 2025).

System: silk fibroin powder
Experiment: Evaluation of adsorptivity of groups containing aromatic rings to proteins having a β-sheet structure
Assay type: binding
Conditions: for Adsorption rate to fibroin (%): 0.02 mM, 0.15 mL methanol solution on 10 mg silk fibroin powder, air-dried, 0.15 mL water, stirred 5 minutes, supernatant absorbance; for Adsorptivity: class of adsorption rate to fibroin
Description: After distillation of methanol by air-drying, 0.15 mL of water was added. After stirring for 5 minutes, the supernatant was collected. The concentration of groups containing aromatic rings in the collected supernatant liquid and the percentage of adsorption of groups containing aromatic rings to fibroin were calculated by absorbance measurement, and the adsorptivity of groups containing aromatic rings to proteins having a β-sheet structure was evaluated by the following criteria.
“Evaluation A” and “Evaluation B” indicate the level at which groups containing aromatic rings adsorb strongly to proteins having a β-sheet structure, and “Evaluation C” indicates the low adsorptivity of groups containing aromatic rings.
• A: 90% or more • B: 60% or more but less than 90% • C: Less than 60%

Row | Compound | Adsorption rate to fibroin (%) | Adsorptivity
1 | O=C(O)CCNc1ccc(-c2nc3ccccc3s2)cc1 [Compound 2] | 79% | B (60% or more but less than 90%)
2 | O=C(O)CCOc1ccccc1-c1nc2ccccc2s1 [Compound 4] | 71% | B (60% or more but less than 90%)
3 | Thioflavin T acid [reference compound] | 91% | A (90% or more)
